Assay results reported in patent publication US9895370B2, “Pharmaceutical composition for preventing or treating of cirrhosis of liver comprising G protein coupled receptor 119 ligand as an active ingredient” (DONGGUK UNIVERSITY INDUSTRY—ACADEMIC COOPERATION FOUNDATION, priority 2015, dated 2018).

What was measured:
Smad2/Smad3 = assay: TGFβ1-elevated Smad2/Smad3 phosphorylation and nuclear translocation in LX-2; assay type: cell-based, human
Protocol: (§1) A human HSC line (LX-2, Milipore, U.S.A.) was plated in a 6-well plate, and grown to confluency in DMEM supplemented with 1% penicillin-streptomycin (Hyclone, U.S.A.) and 2% fetal bovine serum (Hyclone, U.S.A.) at 37° C. in a 5% CO2 incubator. For a further experiment, the confluent HSC line was incubated in an FBS-free medium, instead of the 2% FBS-added medium.
A whole cell lysate and a nuclear fraction were separated according to a conventional method. More specifically, the whole cell lysate was obtained by lysing cells washed with phosphate buffered saline (PBS) with a lysis buffer [10 mM Tris-HCl (pH 7.1), 100 mM NaCl, 1 mM EDTA, 10% glycerol, 0.5% Triton X-100, 0.5% Nonidet P-40, 1 mM dithiothreitol and 0.5 mM phenylmethylsulfonyl fluoride (PMSF)] at 4° C. for 30 minutes, and centrifuging the resulting solution at 14,000×g for 15 minutes to obtain a supernatant. To obtain the nuclear fraction, a low-osmotic pressure buffer containing 10 mM HEPES (pH 7.9), 10 mM KCl, 0.1 mM EDTA, 1 mM DTT and 0.5 mM PMSF was added and reacted at 4° C. for 10 minutes. Following addition of 10% Nonidet P-40 and vortexing for 10 seconds, the supernatant obtained by centrifugation at 13,000 rpm for 3 minutes was removed, and the remaining precipitate was washed three times with a low-osmotic pressure buffer. The precipitate was mixed with a high-osmotic pressure buffer [20 mM HEPES (pH 7.9), 400 mM NaCl, 1 mM EDTA, 1 mM DTT and 1 mM PMSF] and vortexed again at 4° C. for 10 minutes to induce a reaction for 20 minutes. Following centrifugation at 13,000 rpm for 10 minutes, a supernatant was obtained to be used as a nuclear fraction. A protein concentration was quantified using a protein quantify kit of PRO-MEASURE™ protein measurement solution (iNtRON Biotechnology, South Korea) according to the Bradford assay.
Sodium dodecylsulfate-polyacrylamide gel electrophoresis (SDS-PAGE) was performed using a gel electrophoresis device (Mighty Small SE 250, Hoefer Scientific Instruments, San Francisco) according to the method established by the inventors. […]

Smad3 and p300 = assay: Smad3-p300 interaction, Smad3 acetylation and AMPK-p300 binding in LX-2 (immunoprecipitation); assay type: cell-based, human
Protocol: as §1
Total fraction protein was reacted with corresponding antibodies at 4° C. for 12 hours or more. An antigen-antibody conjugate was reacted with protein G-agarose at 4° C. for 2 hours to precipitate, and then reacted with 2× Laemmli buffer. The extracted protein was observed by an immunochemical method.
According to existing reports, AMPK activation in HSCs inhibits the interaction between Smad3 and p300 and inhibits the expression of a liver fibrosis-inducing factor through elevation of proteasomal degradation of the transcriptional coactivator p300. Thus, the influence of the GPR119 ligand on the interaction between Smad2/Smad3 and p300 was examined.
Subsequently, in the present invention, a mechanism for inhibiting the Smad-p300 interaction due to AMPK activation was investigated.

[1] = system: peptidyl prolyl isomerase (Pin1); assay: Pin1 expression in LX-2; assay type: cell-based, human; settings: FIG. 5b
Protocol: as §1
According to existing reports, as a core factor participating in cell proliferation by PDGF, peptidyl prolyl isomerase (Pin1) is known. Therefore, Pin1 relevance with respect to the GPR119 ligand action was evaluated.

human HSC line LX-2 = assay: TGFβ1-inducible collagen I and TGFβ expression in LX-2; assay type: cell-based
Protocol: as §1
Total RNA ([…]) extracted from cells using Trizol and a Maxime RT PreMix Kit (iNtRON Biotechnology, Gyeonggi-do, Korea) was used to obtain cDNA. For RT-PCR, a target gene was amplified by PCR using a Maxime™ PCR PreMix Kit according to the manufacturer's instructions, and subjected to electrophoresis in a 2% agrose gel, thereby identifying the amplified PCR product.
Meanwhile, for real-time RT-qPCR, the synthesized cDNA was assessed in a CFX Connect™ Real-Time PCR Detection System (Bio-Rad Laboratories, CA, USA) instrument using a SYBR green dye (Bio-Rad). The CP value of the gene was calibrated with the CP value of S 18r gene. Also, through a melting curve analysis, specificity of the amplified PCR product was confirmed.
(§2) Sodium dodecylsulfate-polyacrylamide gel electrophoresis (SDS-PAGE) was performed using a gel electrophoresis device (Mighty Small SE 250, Hoefer Scientific Instruments, San Francisco) according to the method established by the inventors. A lysed cell fraction was diluted with a sample dilution buffer [63 mM Tris (pH. 6.8), 10% glycerol, 2% SDS, 0.0013% bromophenol blue, 5% β-mercaptoethanol], and subjected to electrophoresis in an electrode buffer (15 g Tris, 72 g glycerin and 5 g SDS contained in an 1 L solution) using a 8-12% gel. After electrophoresis, the gel was transferred to a nitrocellulose membrane to transfer proteins using an electrophoresis device for transfer in a transfer buffer (25 mM Tris, 192 mM glycerin, 20% v/v methanol (pH. 8.3)] at 40 mA for 3 hours. The nitrocellulose membrane was reacted with first antibodies, reacted with horseradish peroxidase-conjugated goat anti-rabbit IgG and horseradish peroxidase-conjugated goat anti-mouse IgG as secondary antibodies for 1 hour, and visualized using an ECL chemiluminescence system (Amersham, Gaithesberg, Mass.).
A critical cytokine having an influence on the induction of liver fibrosis, TGFβ1, is a potent fibrosis stimulation factor for HSCs. To examine the expression of a liver fibrosis-inducing factor which was increased when the human liver cell line LX-2, cultured by method D was treated with TGFβ1, changes in expression according to the treatment with GPR119 ligands (MBX-2982, GSK1292263) were assessed by the methods described in G and H, thereby observing the effect of the GPR119 ligands.

[2] = system: mouse embryonic fibroblasts (MEFs); assay: collagen I and α-SMA protein expression in mouse embryonic fibroblasts (western blot); assay type: cell-based; settings: FIG. 2b
Protocol: as §2

mouse HSCs = assay: col1A1 mRNA expression in primary cultured mouse HSCs during in vitro culture-induced activation; assay type: cell-based; settings: treated on day 1, 3 and 5, FIG. 2a
Protocol: HSCs were isolated from a male C57BL/6 mouse, a male GPR119 WT mouse and a GPR119 KO mouse. More specifically, each mouse was anesthetized to perform an abdominal incision, a cannula was inserted into the hepatic portal vein to introduce a gas mixture of 5% CO2 and 95% 02, and then Ca^2+, Mg^2+-free Hank's balanced salt solution was injected into the cannula at 37° C. to remove blood in the liver. Afterward, a 0.1% collagenase type IV (Sigma, U.S.A.) solution was injected. The liver tissue was detached from the body and prepared in a liver cell suspension, and following centrifugation at 1000×g for 10 minutes, a precipitated cell layer was obtained by floating HSCs to isolate through a density gradient method using Nycodenz. The isolated HSCs were cultured in high glucose Dulbecco's Modified Eagle's Medium (DMEM) containing 10% fetal bovine serum, 50 U/ml penicillin and […] streptomycin at 37° C. in 5% CO2.
Total RNA ([…]) extracted from cells using Trizol and a Maxime RT PreMix Kit (iNtRON Biotechnology, Gyeonggi-do, Korea) was used to obtain cDNA. […]
Meanwhile, for real-time RT-qPCR, the synthesized cDNA was assessed in a CFX Connect™ Real-Time PCR Detection System (Bio-Rad Laboratories, CA, USA) instrument using a SYBR green dye (Bio-Rad). […]

HSC line LX-2 = assay: PDGF-induced HSC proliferation in LX-2; assay type: cell-based, human; settings: FIG. 5a
Protocol: as §1

[3] = system: C57BL/6 mice with liver fibrosis induced by carbon tetrachloride; assay: carbon tetrachloride (CCl4)-induced liver fibrosis animal model; assay type: in vivo, mouse; settings: 40 mg/kg oral once a day 5 days a week, 3 weeks, FIG. 3a
Protocol: 6-week-old male C57BL/6J mice (Joongang laboratory animal, Seoul) were acclimated in a laboratory environment for 1 week with solid feed, and randomly arranged in control groups and experimental groups according to randomized block design. Then, carbon tetrachloride (1 ml/kg) was administered to 6-week-old male C57BL/6 mice (Joongang laboratory animal, Seoul) twice a week for three weeks to induce liver fibrosis, and a GPR119 ligand (10 mg/kg) suspended in 40% PEG400 was orally administered thereto once a day for five days per week. For liver fibrosis models induced by dimethylnitrosamine (DMN), DMN (10 mg/kg) was administered to mice three times a week to induce liver fibrosis. As the control group, a vehicle-treated group was used. After termination of the experiment, the laboratory animals were fasted for 12 hours or more, and anesthetized with Zoletil to obtain blood and the liver, and the liver was washed with 0.1 M phosphate buffered saline (PBS; pH 7.4) and weighed. The blood obtained from the abdominal aorta was centrifuged in an SST tube at 3000×RPM for 20 minutes to isolate the serum.
For the above-mentioned laboratory animals, serum alanine transaminase (ALT), aspartate transaminase (AST), total bilirubin (T-BIL) and direct bilirubin (D-BIL) were analyzed using an automated hematology analyzer, Spectrum [(Abbott Laboratories, Abbott Park, Ill.)].
The liver samples obtained as described above were prepared into sections, and the tissue section was fixed with 10% buffered neutral formalin and embedded in paraffin. Afterward, the resulting section was sliced to a 4-μm thickness, and put on a slide to fix a specimen, stained with sirius red, and observed using an optical microscope.
A predetermined amount of liver tissue was homogenized in a mortar with liquid nitrogen and a lysis buffer, and the resulting tissue solution was transferred into a new tube and then vortexed. The tissue solution was centrifuged at 14,000 rpm and 4° C. for 20 minutes, and the intermediate layer was extracted to quantify a protein by a Bradford method. 30 μg of proteins were analyzed by electrophoresis using an SDS polyacrylamide gel, and the change of protein expression was analyzed by western blot.
To examine improvement of liver fibrosis by the GPR119 ligand, in an animal model having liver fibrosis induced by carbon tetrachloride (CCl4), an effect of the GPR119 ligand on inhibiting liver fibrosis was observed.
First, 1 ml/kg of carbon tetrachloride was intraperitoneally administered twice a week, and also orally administered with the GPR119 ligand (MBX-2982) at doses of 20 and 40 mg/kg, respectively, once a day for 5 days a week. Three weeks later, liver tissue was extracted, subjected to sirius red staining for confirming collagen production and immunohistochemical staining for confirming expression of a HSC activation marker, that is, α-SMA, and then compared with a control group and a carbon tetrachloride only-treated group.

[4] = LX-2 treated with TGFβ1, FIGS. 2c, 2d

CCc1cnc(N2CCC(c3nc(COc4ccc(-n5cnnn5)cc4)cs3)CC2)nc1 [MBX-2982, 4-((4-(1H-tetrazol-1-yl)phenoxy)methyl)-2-(1-(5-ethylpyrimidin-2-yl)piperidin-4-yl)thiazole]
nuclear translocation of Smad2/Smad3 elevated by TGFβ1 (Smad2/Smad3; LX-2, FIG. 2e): inhibited | phosphorylation of Smad2/Smad3 elevated by TGFβ1 (Smad2/Smad3; LX-2, FIG. 2e): inhibited | inhibitory action on phosphorylation of Smad3 activated by TGFβ1, under AMPK inhibition (Smad2/Smad3; compound C / DN-AMPK, FIG. 4d): partially recovered by AMPK inhibition, but not completely offset | Smad3 acetylation elevated by TGFβ1 (Smad3 and p300; LX-2, FIG. 4e): considerably inhibited | interaction between Smad3 and p300 elevated by TGFβ1 (Smad3 and p300; LX-2, FIG. 4e): considerably inhibited | binding of activated AMPK to p300 (Smad3 and p300; LX-2 treated with ligand alone, FIG. 4g): directly bound to p300 | Pin1 expression [1]: time-dependently reduced | expression of TGFβ1-inducible liver fibrosis inducing factors (collagen I, TGFβ) with compound C / DN-AMPK (human HSC line LX-2; AMPK inhibitor compound C treated, DN-AMPK transduced, FIG. 4c): inhibitory effect | inhibitory effect on collagen I and TGFβ expression under overexpression of Pin1 (human HSC line LX-2; LX-2 transduced with Pin1 adenovirus, TGFβ1, FIG. 5c): reversed | expression of TGFβ1-inducible TGFβ (human HSC line LX-2; [4]): inhibited | expression of TGFβ1-inducible collagen I (human HSC line LX-2; [4]): inhibited | collagen I expression [2]: inhibited | α-SMA expression [2]: inhibited | mRNA expression of collagen col1A1 (mouse HSCs): considerably inhibited | HSC proliferation induced by PDGF (HSC line LX-2): inhibited | collagen production (sirius red staining) in liver tissue [3]: significantly reduced | α-SMA expression (immunohistochemical staining) in liver tissue [3]: significantly reduced
